The values that follow come from patent publication US8889712B2, “IAP antagonists” (Bristol-Myers Squibb Company, priority 2012, dated 2014).

pIC50: −log10 of the molar value. Structures can show the parent of a compound that is named as a salt. Where two headings read alike, the source gives them in different places.

The target in one experiment is T1, XIAP BIR2-3 (Homo sapiens, UniProt P98170, C202A/C213G).
T1 construct: His-BIR2-3 (125-356, C202A/C213G, XIAP)
In words: XIAP-BIR2-3 dimeric SMAC Peptide Homogeneous Time Resolved Fluorescence (HTRF) Assay. In kind it is binding. The protocol:
B. […] Assays were performed in black, flat-bottom, 384-well plates. […] Compounds were dissolved at 3 mM in dimethylsulfoxide (DMSO) and evaluated at eleven serially diluted concentrations. IC50 and Ki values were derived by non-linear regression analysis.

The target of the next experiment is T2, XIAP BIR3 (Homo sapiens, UniProt P98170).
T2 construct: His-BIR3 (241-356, XIAP)
In words: XIAP-BIR3/SMAC Homogeneous Time Resolved Fluorescence (HTRF) Assay. In kind it is binding. The method in brief:
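Competition HTRF between XIAP-BIR3 and SMAC; reaction 60 min at room temperature, then anti-6×His-terbium Fab detection for a further 30 min.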

The mark [1] stands for this setting: 0.5 nM N-His-BIR2-3 (125-356, C202A/C213G, XIAP), 20 nM fluorescein labeled dimeric SMAC peptide, HTRF signal, read-out: XIAP BIR2-3 IC50.
Where [2] appears, read: 1 nM N-His-BIR3 (241-356, XIAP), 5 nM fluorescein labeled SMAC peptide, HTRF signal, read-out: XIAP BIR3 IC50.

T1 sequence (P98170 125-356 C202A/C213G): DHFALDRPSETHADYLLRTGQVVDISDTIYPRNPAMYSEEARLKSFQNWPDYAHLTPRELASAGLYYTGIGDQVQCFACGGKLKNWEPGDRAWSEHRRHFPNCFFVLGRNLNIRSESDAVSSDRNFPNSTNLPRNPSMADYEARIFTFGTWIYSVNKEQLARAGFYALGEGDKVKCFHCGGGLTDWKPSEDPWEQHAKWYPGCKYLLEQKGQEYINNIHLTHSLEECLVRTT
T2 sequence (P98170 241-356): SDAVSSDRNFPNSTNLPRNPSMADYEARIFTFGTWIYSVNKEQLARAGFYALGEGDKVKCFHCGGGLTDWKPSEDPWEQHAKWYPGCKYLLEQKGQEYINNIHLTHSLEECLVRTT

As usually defined, the pIC50 is the IC50 on a negative log10 scale, so that one unit is a factor of ten. With `CN[C@@H](C)C(=O)N[C@H](C(=O)N1Cc2cc([C@H]3C[C@@H](C(=O)N[C@H](COC)Cc4ccccc4)N(C(=O)[C@@H](NC(=O)[C@H](C)NC)C(C)(C)C)C3)ccc2C[C@H]1C(=O)N[C@H](COC)Cc1ccccc1)C(C)(C)C` [Example 84, (S)-2-((S)-3,3-Dimethyl-2-((S)-2-(methylamino)propanamido)butanoyl)-7-((3R,5S)-1-((S)-3,3-dimethyl-2-((S)-2-(methylamino)propanamido)butanoyl)-5-(((S)-1-methoxy-3-phenylpropan-2-yl)carbamoyl)pyrrolidin-3-yl)-N-((S)-1-methoxy-3-phenylpropan-2-yl)-1,2,3,4-tetrahydroisoquinoline-3-carboxamide], the pIC50 is 8.09 on XIAP BIR2-3 (setting [1]) and 7.50 on XIAP BIR3 (setting [2]).

In the case of `CN[C@@H](C)C(=O)N[C@H](C(=O)N1Cc2cc([C@H]3C[C@@H](C(=O)N[C@@H](Cc4ccccc4)C(=O)OC)N(C(=O)[C@@H](NC(=O)[C@H](C)NC)C(C)(C)C)C3)ccc2C[C@H]1C(=O)N[C@@H](Cc1ccccc1)C(=O)OC)C(C)(C)C` [Example 85, (S)-Methyl 2-((2S,4R)-1-((S)-3,3-dimethyl-2-((S)-2-(methylamino)propanamido)butanoyl)-4-((S)-2-((S)-3,3-dimethyl-2-((S)-2-(methylamino)propanamido)butanoyl)-3-(((S)-1-methoxy-1-oxo-3-phenylpropan-2-yl)carbamoyl)-1,2,3,4-tetrahydroisoquinolin-7-yl)pyrrolidine-2-carboxamido)-3-phenylpropanoate], the pIC50 against XIAP BIR2-3 is 8.21; against XIAP BIR3, 7.83.

As to `CN[C@@H](C)C(=O)N[C@H](C(=O)N1Cc2cc([C@H]3C[C@@H](C(=O)N[C@@H](Cc4ccccc4)C(=O)O)N(C(=O)[C@@H](NC(=O)[C@H](C)NC)C(C)(C)C)C3)ccc2C[C@H]1C(=O)N[C@@H](Cc1ccccc1)C(=O)O)C(C)(C)C` [Example 86, (S)-2-((S)-7-((3R,5S)-5-(((S)-1-Carboxy-2-phenylethyl)carbamoyl)-1-((S)-3,3-dimethyl-2-((S)-2-(methylamino)propanamido)butanoyl)pyrrolidin-3-yl)-2-((S)-3,3-dimethyl-2-((S)-2-(methylamino)propanamido)butanoyl)-1,2,3,4-tetrahydroisoquinoline-3-carboxamido)-3-phenylpropanoic acid], the pIC50 on XIAP BIR2-3 (setting [1]) was 8.57; on XIAP BIR3 (setting [2]), 8.30.

With `CN[C@@H](C)C(=O)N[C@H](C(=O)N1CC(c2ccc3c(c2)CN(C(=O)[C@@H](NC(=O)[C@H](C)NC)C24CC5CC(CC(C5)C2)C4)[C@H](C(=O)NC2CCCc4ccccc42)C3)C[C@H]1C(=O)NC1CCCc2ccccc21)C(C)(C)C` (stereo partly drawn) [Example 87, (S)-2-((S)-2-((3S,5S,7S)-Adamantan-1-yl)-2-((S)-2-(methylamino)propanamido)acetyl)-7-((3R,5S)-1-((S)-3,3-dimethyl-2-((S)-2-(methylamino)propanamido)butanoyl)-5-(((R)-1,2,3,4-tetrahydronaphthalen-1-yl)carbamoyl)pyrrolidin-3-yl)-N—((R)-1,2,3,4-tetrahydronaphthalen-1-yl)-1,2,3,4-tetrahydroisoquinoline-3-carboxamide, 2 TFA], the pIC50 was 8.23 on XIAP BIR2-3 (setting [1]) and 8.14 on XIAP BIR3 (setting [2]).

Regarding `CN[C@@H](C)C(=O)N[C@H](C(=O)N1C[C@@H](NC(=O)c2ccc3c(c2)CN(C(=O)[C@@H](NC(=O)[C@H](C)NC)C24CC5CC(CC(O)(C5)C2)C4)[C@H](C(=O)NC2CCCc4ccccc42)C3)C[C@H]1C(=O)NC1CCCc2ccccc21)C(C)(C)C` (stereo partly drawn) [Example 88, (S)-N^7-((3S,5S)-1-((S)-3,3-dimethyl-2-((S)-2-(methylamino)propanamido)butanoyl)-5-(((R)-1,2,3,4-tetrahydronaphthalen-1-yl)carbamoyl)pyrrolidin-3-yl)-2-((S)-2-((1r,3R,5R,7S)-3-hydroxyadamantan-1-yl)-2-((S)-2-(methylamino)propanamido)acetyl)-N^3-((R)-1,2,3,4-tetrahydronaphthalen-1-yl)-1,2,3,4-tetrahydroisoquinoline-3,7-dicarboxamide], the figures for the pIC50 on XIAP BIR2-3 (setting [1]) and at XIAP BIR3 (setting [2]) were 8.59 and 8.05, respectively.

Regarding `CN[C@@H](C)C(=O)N[C@H](C(=O)N1Cc2cc(C(=O)N[C@H]3C[C@@H](C(=O)N[C@@H]4CCCc5ccccc54)N(C(=O)[C@@H](NC(=O)[C@H](C)NC)C(C)(C)C)C3)ccc2C[C@H]1C(=O)N[C@@H]1CCCc2ccccc21)C(c1ccccc1)c1ccccc1` [Example 89, (S)-N^7-((3S,5S)-1-((S)-3,3-dimethyl-2-((S)-2-(methylamino)propanamido)butanoyl)-5-(((R)-1,2,3,4-tetrahydronaphthalen-1-yl)carbamoyl)pyrrolidin-3-yl)-2-((S)-2-((S)-2-(methylamino)propanamido)-3,3-diphenylpropanoyl)-N^3-((R)-1,2,3,4-tetrahydronaphthalen-1-yl)-1,2,3,4-tetrahydroisoquinoline-3,7-dicarboxamide], the pIC50 at XIAP BIR2-3 (setting [1]) is 6.44; at XIAP BIR3 (setting [2]), 7.42.

On to “(S)-2-((S)-3-Cyclopentyl-2-((S)-2-(methylamino) propanamido)propanoyl)-N^7-((3S,5S)-1-((S)-3,3-dimethyl-2- ((S)-2-(methylamino)propanamido)butanoyl)-5-(((R)-1,2,3,4- tetrahydronaphthalen-1-yl)carbamoyl)pyrrolidin-3-yl)-N^3- ((R)-1,2,3,4-tetrahydronaphthalen-1-yl)-1,2,3,4- tetrahydroisoquinoline-3,7-dicarboxamide [Example 6]”, for which the pIC50 at XIAP BIR2-3 (setting [1]) was 8.70; on XIAP BIR3 (setting [2]), 7.85.
